Measurements reported in patent publication US11446287B2, “Compounds and methods for EP300 or CBP modulation and indications therefor” (Opna Immuno-Oncology SA, priority 2019, dated 2022).

Each compound was assayed against T1, Recombinant human CBP containing the bromodomain (CBP-BD (1043-1159)) (Homo sapiens, UniProt Q92793) (assay: CBP Alphascreen binding assay). Details: read-out: CREBBP (CBP) IC50.
T1 construct: Recombinant human CBP bromodomain (CBP-BD (1043-1159)); made in house; host or cells: E. coli BL21-CodonPlus (DE3), modified pET vector
Summary of the method: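 Buffer: 50 mM HEPES pH 7.5, 50 mM NaCl, 0.01% BSA, 0.01% Triton X-100, 2 mM DTT. The signal was normalised to plate controls and fitted with a four-parameter curve to give IC50.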

T1 sequence (Q92793 1081-1197): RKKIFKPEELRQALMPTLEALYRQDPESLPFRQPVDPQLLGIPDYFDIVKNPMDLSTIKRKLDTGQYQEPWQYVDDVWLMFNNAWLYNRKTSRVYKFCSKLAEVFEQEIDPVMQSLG

Cc1noc(C)c1-c1cnc2c(c1)c(-c1ccc(C(=O)O)cc1Cl)cn2C(c1ccccn1)C1CCCC1 (stereo not shown) [P-0027, 3-chloro-4-(1-(cyclopentyl(pyridin-2-yl)methyl)-5-(3,5-dimethylisoxazol-4-yl)-1H-pyrrolo[2,3-b]pyridin-3-yl)benzoic acid] and Cc1cc(-c2cn(C(c3ccccn3)C3CCCC3)c3ncc(-c4c(C)noc4C)cc23)ccc1C(=O)O (stereo not shown) [P-0028, 4-(1-(cyclopentyl(pyridin-2-yl)methyl)-5-(3,5-dimethylisoxazol-4-yl)-1H-pyrrolo[2,3-b]pyridin-3-yl)-2-methylbenzoic acid] fall in the same range of IC50: 0.1 to 1000 nM for the first, 0.1 to 1000 nM for the second.

Compared with Cc1noc(C)c1-c1cnc2c(c1)c(-c1ccc(C(=O)O)c(C(F)(F)F)c1)cn2C(c1ccccn1)C1CCCC1 (stereo not shown) [P-0029, 4-(1-(cyclopentyl(pyridin-2-yl)methyl)-5-(3,5-dimethylisoxazol-4-yl)-1H-pyrrolo[2,3-b]pyridin-3-yl)-2-(trifluoromethyl)benzoic acid], Cc1noc(C)c1-c1cnc2c(c1)c(-c1ccc(C(=O)O)c(O)c1)cn2C(c1ccccn1)C1CCCC1 (stereo not shown) [P-0030, 4-(1-(cyclopentyl(pyridin-2-yl)methyl)-5-(3,5-dimethylisoxazol-4-yl)-1H-pyrrolo[2,3-b]pyridin-3-yl)-2-hydroxybenzoic acid] is higher in IC50: 0.1 to 1000 nM for the first, 1000 to 8000 nM for the second. The first is the more potent here.

Cc1noc(C)c1-c1cnc2c(c1)c(-c1ccc(CC(=O)O)cc1)cn2C(c1ccccn1)C1CCCC1 (stereo not shown) [P-0031, 2-(4-(1-(cyclopentyl(pyridin-2-yl)methyl)-5-(3,5-dimethylisoxazol-4-yl)-1H-pyrrolo[2,3-b]pyridin-3-yl)phenyl)acetic acid] and Cc1noc(C)c1-c1cnc2c(c1)c(-c1ccc(C(C)(C)C(=O)O)cc1)cn2C(c1ccccn1)C1CCCC1 (stereo not shown) [P-0032, 2-(4-(1-(cyclopentyl(pyridin-2-yl)methyl)-5-(3,5-dimethylisoxazol-4-yl)-1H-pyrrolo[2,3-b]pyridin-3-yl)phenyl)-2-methylpropanoic acid] fall in the same range of IC50: 0.1 to 1000 nM for the first, 0.1 to 1000 nM for the second.

Cc1noc(C)c1-c1cnc2c(c1)c(-c1ccc(C3(C(=O)O)CC3)cc1)cn2C(c1ccccn1)C1CCCC1 (stereo not shown) [P-0033, 1-(4-(1-(cyclopentyl(pyridin-2-yl)methyl)-5-(3,5-dimethylisoxazol-4-yl)-1H-pyrrolo[2,3-b]pyridin-3-yl)phenyl)cyclopropane-1-carboxylic acid] and Cc1noc(C)c1-c1cnc2c(c1)c(-c1ccc(C(F)(F)C(=O)O)cc1)cn2C(c1ccccn1)C1CCCC1 (stereo not shown) [P-0034, 2-(4-(1-(cyclopentyl(pyridin-2-yl)methyl)-5-(3,5-dimethylisoxazol-4-yl)-1H-pyrrolo[2,3-b]pyridin-3-yl)phenyl)-2,2-difluoroacetic acid] fall in the same range of IC50: 0.1 to 1000 nM for the first, 0.1 to 1000 nM for the second.

COc1ncccc1-n1cc(-c2ccc(C(=O)O)cc2OC(F)(F)F)c2cc(-c3c(C)noc3C)cnc21 [P-0316, 4-(5-(3,5-dimethylisoxazol-4-yl)-1-(2-methoxypyridin-3-yl)-1H-pyrrolo[2,3-b]pyridin-3-yl)-3-(trifluoromethoxy)benzoic acid] and Cc1ncccc1-n1cc(-c2ccc(C(=O)O)cc2OC(F)(F)F)c2cc(-c3c(C)noc3C)cnc21 [P-0317, 4-(5-(3,5-dimethylisoxazol-4-yl)-1-(2-methylpyridin-3-yl)-1H-pyrrolo[2,3-b]pyridin-3-yl)-3-(trifluoromethoxy)benzoic acid] fall in the same range of IC50: 0.1 to 1000 nM for the first, 0.1 to 1000 nM for the second.

Cc1noc(C)c1-c1cnc2c(c1)c(-c1ccc(C(=O)O)cc1OC(F)(F)F)cn2-c1cnn(C)c1 [P-0318, 4-(5-(3,5-dimethylisoxazol-4-yl)-1-(1-methyl-1H-pyrazol-4-yl)-1H-pyrrolo[2,3-b]pyridin-3-yl)-3-(trifluoromethoxy)benzoic acid] and Cc1noc(C)c1-c1cnc2c(c1)c(-c1ccc(C(=O)O)cc1OC(F)(F)F)cn2-c1cncnc1 [P-0319, 4-(5-(3,5-dimethylisoxazol-4-yl)-1-(pyrimidin-5-yl)-1H-pyrrolo[2,3-b]pyridin-3-yl)-3-(trifluoromethoxy)benzoic acid] fall in the same range of IC50: 0.1 to 1000 nM for the first, 0.1 to 1000 nM for the second.

Cc1noc(C)c1-c1cnc2c(c1)c(-c1ccc(C(=O)O)cc1OC(F)(F)F)cn2-c1cnc(N)nc1 [P-0320, 4-(1-(2-aminopyrimidin-5-yl)-5-(3,5-dimethylisoxazol-4-yl)-1H-pyrrolo[2,3-b]pyridin-3-yl)-3-(trifluoromethoxy)benzoic acid] and Cc1noc(C)c1-c1cnc2c(c1)c(-c1ccc(C(=O)O)cc1OC(F)(F)F)cn2-c1cnc(N(C)C)nc1 [P-0321] fall in the same range of IC50: 0.1 to 1000 nM for the first, 0.1 to 1000 nM for the second.

Cc1noc(C)c1-c1cnc2c(c1)c(-c1ccc(C(=O)O)cc1OC(F)(F)F)cn2-c1ccc(C(=O)O)cc1 [P-0322, 4-(1-(4-carboxyphenyl)-5-(3,5-dimethylisoxazol-4-yl)-1H-pyrrolo[2,3-b]pyridin-3-yl)-3-(trifluoromethoxy)benzoic acid] and Cc1noc(C)c1-c1cnc2c(c1)c(-c1ccc(C(=O)O)cc1OC(F)(F)F)cn2-c1ccc(C(N)=O)cc1 [P-0323, 4-(1-(4-carbamoylphenyl)-5-(3,5-dimethylisoxazol-4-yl)-1H-pyrrolo[2,3-b]pyridin-3-yl)-3-(trifluoromethoxy)benzoic acid] fall in the same range of IC50: 0.1 to 1000 nM for the first, 0.1 to 1000 nM for the second.

COc1cc(C(=O)O)ncc1-c1cn(-c2ccncc2Cl)c2ncc(-c3c(C)noc3C)cc12 [P-0324, 5-(1-(3-chloropyridin-4-yl)-5-(3,5-dimethylisoxazol-4-yl)-1H-pyrrolo[2,3-b]pyridin-3-yl)-4-methoxypicolinic acid] and CCOc1cc(C(=O)O)c(F)cc1-c1cn(-c2ccc(F)cc2F)c2ncc(-c3c(C)noc3C)cc12 [P-0330, 4-(1-(2,4-difluorophenyl)-5-(3,5-dimethylisoxazol-4-yl)-1H-pyrrolo[2,3-b]pyridin-3-yl)-5-ethoxy-2-fluorobenzoic acid] fall in the same range of IC50: 0.1 to 1000 nM for the first, 0.1 to 1000 nM for the second.

Cc1noc(C)c1-c1cnc2c(c1)c(-c1ccc(C(=O)O)cc1OCC(F)F)cn2[C@H]1CCOC1 [P-0325, (S)-3-(2,2-difluoroethoxy)-4-(5-(3,5-dimethylisoxazol-4-yl)-1-(tetrahydrofuran-3-yl)-1H-pyrrolo[2,3-b]pyridin-3-yl)benzoic acid] and Cc1noc(C)c1-c1cnc2c(c1)c(-c1c(Cl)cc(C(=O)O)cc1OCC(F)F)cn2[C@H]1CCOC1 [P-0333, (S)-3-chloro-5-(2,2-difluoroethoxy)-4-(5-(3,5-dimethylisoxazol-4-yl)-1-(tetrahydrofuran-3-yl)-1H-pyrrolo[2,3-b]pyridin-3-yl)benzoic acid] fall in the same range of IC50: 0.1 to 1000 nM for the first, 0.1 to 1000 nM for the second.

CCn1cc(-n2cc(-c3ccc(C(=O)O)cc3OCC(F)F)c3cc(-c4c(C)noc4C)cnc32)c(C)n1 [P-0326, 3-(2,2-difluoroethoxy)-4-(5-(3,5-dimethylisoxazol-4-yl)-1-(1-ethyl-3-methyl-1H-pyrazol-4-yl)-1H-pyrrolo[2,3-b]pyridin-3-yl)benzoic acid] and Cc1noc(C)c1-c1cnc2c(c1)c(-c1ccc(C(=O)O)cc1OCC(F)F)cn2-c1cnc(N2CCC2)nc1 [P-0328, 4-(1-(2-(azetidin-1-yl)pyrimidin-5-yl)-5-(3,5-dimethylisoxazol-4-yl)-1H-pyrrolo[2,3-b]pyridin-3-yl)-3-(2,2-difluoroethoxy)benzoic acid] fall in the same range of IC50: 0.1 to 1000 nM for the first, 0.1 to 1000 nM for the second.

Cc1noc(C)c1-c1cnc2c(c1)c(-c1c(F)cc(C(=O)O)cc1OCC(F)F)cn2-c1ccccc1 [P-0327, 3-(2,2-difluoroethoxy)-4-(5-(3,5-dimethylisoxazol-4-yl)-1-phenyl-1H-pyrrolo[2,3-b]pyridin-3-yl)-5-fluorobenzoic acid] and Cc1noc(C)c1-c1cnc2c(c1)c(-c1c(Cl)cc(C(=O)O)cc1OCC(F)F)cn2-c1ccccc1 [P-0332, 3-chloro-5-(2,2-difluoroethoxy)-4-(5-(3,5-dimethylisoxazol-4-yl)-1-phenyl-1H-pyrrolo[2,3-b]pyridin-3-yl)benzoic acid] fall in the same range of IC50: 0.1 to 1000 nM for the first, 0.1 to 1000 nM for the second.

CCOc1cc(C(=O)O)nc(OCC)c1-c1cn(-c2ccc(F)cc2F)c2ncc(-c3c(C)noc3C)cc12 [P-0329, 5-(1-(2,4-difluorophenyl)-5-(3,5-dimethylisoxazol-4-yl)-1H-pyrrolo[2,3-b]pyridin-3-yl)-4,6-diethoxypicolinic acid] and Cc1noc(C)c1-c1cnc2c(c1)c(-c1c(Cl)cc(C(=O)O)cc1OCC(F)F)cn2-c1cnc(N2CCC2)nc1 [P-0331, 4-(1-(2-(azetidin-1-yl)pyrimidin-5-yl)-5-(3,5-dimethylisoxazol-4-yl)-1H-pyrrolo[2,3-b]pyridin-3-yl)-3-chloro-5-(2,2-difluoroethoxy)benzoic acid] fall in the same range of IC50: 0.1 to 1000 nM for the first, 0.1 to 1000 nM for the second.

Cc1noc(C)c1-c1cnc2c(c1)c(-c1ccc(C(=O)O)cc1OC1CCC1)cn2-c1ncccc1C#N [P-0334, 4-(1-(3-cyanopyridin-2-yl)-5-(3,5-dimethylisoxazol-4-yl)-1H-pyrrolo[2,3-b]pyridin-3-yl)-3-cyclobutoxybenzoic acid] and Cc1noc(C)c1-c1cnc2c(c1)c(-c1ccc(C(=O)O)cc1OC1CC1)cn2-c1ncccc1C#N [P-0337, 4-(1-(3-cyanopyridin-2-yl)-5-(3,5-dimethylisoxazol-4-yl)-1H-pyrrolo[2,3-b]pyridin-3-yl)-3-cyclopropoxybenzoic acid] fall in the same range of IC50: 0.1 to 1000 nM for the first, 0.1 to 1000 nM for the second.

Cc1noc(C)c1-c1cnc2c(c1)c(-c1ccc(C(=O)O)cc1OC(F)(F)F)cn2C1(CC#N)CCC1 [P-0335, 4-(1-(1-(cyanomethyl)cyclobutyl)-5-(3,5-dimethylisoxazol-4-yl)-1H-pyrrolo[2,3-b]pyridin-3-yl)-3-(trifluoromethoxy)benzoic acid] and Cc1noc(C)c1-c1cnc2c(c1)c(-c1ccc(C(=O)O)cc1OCC(F)F)cn2C(C1CC1)C1CC1 [P-0338, 4-(1-(dicyclopropylmethyl)-5-(3,5-dimethylisoxazol-4-yl)-1H-pyrrolo[2,3-b]pyridin-3-yl)-3-(2,2-difluoroethoxy)benzoic acid] fall in the same range of IC50: 0.1 to 1000 nM for the first, 0.1 to 1000 nM for the second.

For Cc1noc(C)c1-c1cnc2c(c1)c(-c1ccc(C(=O)O)cc1OC(C)C)cn2-c1ncccc1C#N [P-0336, 4-(1-(3-cyanopyridin-2-yl)-5-(3,5-dimethylisoxazol-4-yl)-1H-pyrrolo[2,3-b]pyridin-3-yl)-3-isopropoxybenzoic acid], the IC50 was 0.1 to 1000 nM.
